Patent US20250152585A1, “PHARMACEUTICAL COMPOUND” (Duke Street Bio Limited, priority 2022, published 2025)
Where two headings read alike, the source gives them in different places.

Columns and labels:
[1] = target: T1, full length N-terminally FLAG-tagged PARP1 (Homo sapiens, UniProt P09874); test: PARP1 biochemical DELFIA assay (auto-PARylation); set-up: recombinant full length human N-terminally FLAG-tagged PARP1
[2] = target: T1, full length N-terminally FLAG-tagged PARP1; test: PARP1 probe displacement HTRF assay; conditions: for Selectivity: PARP1 over PARP2, ratio Kd (PARP2)/Kd (PARP1); for Kd: binned Kd
[3] = target: T2, N-terminally FLAG-tagged PARP2 (amino acids 1-583) (Homo sapiens, UniProt Q9UGN5); test: PARP2 probe displacement HTRF assay; type: binding; conditions: binned Kd
T2 construct: N-terminally FLAG-tagged PARP2 (amino acids 1-583)
T2 sequence (Q9UGN5 whole entry, the tested form may be a part): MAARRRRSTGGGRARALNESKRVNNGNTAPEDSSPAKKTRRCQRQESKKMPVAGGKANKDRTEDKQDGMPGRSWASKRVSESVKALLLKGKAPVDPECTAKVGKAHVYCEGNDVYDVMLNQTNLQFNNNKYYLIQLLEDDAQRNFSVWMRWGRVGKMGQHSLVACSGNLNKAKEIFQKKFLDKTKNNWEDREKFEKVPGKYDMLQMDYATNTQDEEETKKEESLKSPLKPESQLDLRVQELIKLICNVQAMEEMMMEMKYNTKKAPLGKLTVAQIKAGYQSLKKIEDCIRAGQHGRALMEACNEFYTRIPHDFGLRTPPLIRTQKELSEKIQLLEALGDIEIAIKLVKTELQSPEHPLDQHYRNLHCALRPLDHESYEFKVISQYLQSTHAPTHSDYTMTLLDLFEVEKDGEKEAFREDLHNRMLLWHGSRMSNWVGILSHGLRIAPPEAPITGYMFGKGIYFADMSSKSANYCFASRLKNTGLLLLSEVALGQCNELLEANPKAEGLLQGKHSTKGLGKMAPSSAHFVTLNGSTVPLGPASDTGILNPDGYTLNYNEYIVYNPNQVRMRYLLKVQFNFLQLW
Procedure: Data analysis was performed identical as for PARP1.

[4] = binned IC50, PARP1 biochemical DELFIA assay
[5] = read-out: PARP1 HTRF, PARP1 probe displacement HTRF
[6] = PARP1 HTRF, PARP1 probe displacement HTRF
[7] = binned IC50, biochemical auto-PARylation assay
[8] = read-out: PARP1 HTRF, probe displacement HTRF

T1 sequence (P09874 whole entry): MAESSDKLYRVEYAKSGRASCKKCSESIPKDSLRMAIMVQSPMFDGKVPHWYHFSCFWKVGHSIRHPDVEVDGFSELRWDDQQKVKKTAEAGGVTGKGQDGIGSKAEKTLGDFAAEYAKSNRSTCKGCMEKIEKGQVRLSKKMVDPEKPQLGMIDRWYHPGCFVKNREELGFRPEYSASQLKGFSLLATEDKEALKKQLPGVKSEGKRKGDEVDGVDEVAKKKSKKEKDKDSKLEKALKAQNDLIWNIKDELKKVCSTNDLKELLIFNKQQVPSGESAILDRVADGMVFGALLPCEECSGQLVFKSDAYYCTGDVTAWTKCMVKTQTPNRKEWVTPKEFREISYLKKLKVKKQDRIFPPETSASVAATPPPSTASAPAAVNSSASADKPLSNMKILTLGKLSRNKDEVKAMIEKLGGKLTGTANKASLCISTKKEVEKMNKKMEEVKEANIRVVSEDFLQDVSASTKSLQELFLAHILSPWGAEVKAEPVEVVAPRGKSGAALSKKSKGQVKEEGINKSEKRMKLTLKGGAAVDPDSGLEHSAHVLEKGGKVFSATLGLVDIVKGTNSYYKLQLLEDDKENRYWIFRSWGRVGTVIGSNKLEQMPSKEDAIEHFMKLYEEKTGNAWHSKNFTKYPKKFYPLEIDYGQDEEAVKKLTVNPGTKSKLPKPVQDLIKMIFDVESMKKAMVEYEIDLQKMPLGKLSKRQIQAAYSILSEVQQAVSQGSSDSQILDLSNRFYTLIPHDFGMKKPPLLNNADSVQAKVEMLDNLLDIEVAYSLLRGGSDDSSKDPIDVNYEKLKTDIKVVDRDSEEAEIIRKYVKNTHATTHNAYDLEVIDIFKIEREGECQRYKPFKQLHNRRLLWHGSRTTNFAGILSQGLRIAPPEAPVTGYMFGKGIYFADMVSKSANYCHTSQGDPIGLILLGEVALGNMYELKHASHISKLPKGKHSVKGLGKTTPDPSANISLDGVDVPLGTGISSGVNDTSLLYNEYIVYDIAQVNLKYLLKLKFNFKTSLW

Structure (SMILES)	IC50 [1, 4] [µM]	Selectivity ([2]; probe displacement HTRF)	Kd [2, 5] [µM]	Kd ([3]; PARP2 probe displacement HTRF) [µM]	Kd [2, 6] [µM]	IC50 [1, 7] [µM]	Kd [2, 8] [µM]	Kd ([3]; probe displacement HTRF) [µM]
CNC(=O)c1ccc(N2CCC(N3CCC(c4ccc(Cl)c(=O)[nH]4)C3)CC2)cn1 (single isomer, unassigned) [Compound 201b]	< 0.01	+++ (+++ indicate a value of at least 100)	< 0.01	1 to 10				
CNC(=O)c1cc(C)c(N2CCC(N3CCC(c4cc5ccc(F)cc5c(=O)[nH]4)C3)CC2)cn1 (single isomer, unassigned) [Compound 202b]	< 0.01	+ (+ indicates a value of 10 to less than 50)	< 0.01	0.01 to 0.1				
CNC(=O)c1cc(C)c(N2CCC(N3CCC(c4cc5ccccc5c(=O)[nH]4)C3)CC2)c(C)n1 (single isomer, unassigned) [Compound 205a]	0.1 to 1	+ (+ indicates a value of 10 to less than 50)	0.1 to 1	> 10				
CNC(=O)c1cc(C)c(N2CCC(N3CCC(c4cc5ccccc5c(=O)[nH]4)C3)CC2)c(C)n1 (single isomer, unassigned) [Compound 205b]	0.01 to 0.1	+ (+ indicates a value of 10 to less than 50)	0.01 to 0.1	1 to 10				
CNC(=O)c1ccc(N2CCC(N3CCC(c4cc5cccc(F)c5c(=O)[nH]4)C3)CC2)c(C)n1 (single isomer, unassigned) [Compound 206a]	< 0.01	+++ (+++ indicate a value of at least 100)	< 0.01	0.1 to 1				
CNC(=O)c1ccc(N2CCC(N3CCC(c4cc5cccc(F)c5c(=O)[nH]4)C3)CC2)c(C)n1 (single isomer, unassigned) [Compound 206b]	< 0.01	+++ (+++ indicate a value of at least 100)	< 0.01	1 to 10				
CNC(=O)c1ccc(N2CCC(N3CCC(c4ccc(COC)c(=O)[nH]4)C3)CC2)cn1 (single isomer, unassigned) [Compound 207a]	< 0.01	+++ (+++ indicate a value of at least 100)	< 0.01	> 10				
CNC(=O)c1ccc(N2CCC(N3CCC(c4ccc(COC)c(=O)[nH]4)C3)CC2)cn1 (single isomer, unassigned) [Compound 207b]	0.1 to 1	− (− indicates a value of less than 10)	0.1 to 1	> 10				
CNC(=O)c1ccc(N2CCC(N3CCC(c4nc5c(c(=O)[nH]4)CCCN5C)C3)CC2)cn1 (single isomer, unassigned) [Compound 208a, N-methyl-5-(4-(3-(8-methyl-4-oxo-3,4,5,6,7,8-hexahydropyrido[2,3-d]pyrimidin-2-yl)pyrrolidin-1-yl)piperidin-1-yl)picolinamide]	< 0.01	+ (+ indicates a value of 10 to less than 50)		0.1 to 1	0.01 to 0.1			
CNC(=O)c1ccc(N2CCC(N3CCC(c4nc5c(c(=O)[nH]4)CCCN5C)C3)CC2)cn1 (single isomer, unassigned) [Compound 208b, N-methyl-5-(4-(3-(8-methyl-4-oxo-3,4,5,6,7,8-hexahydropyrido[2,3-d]pyrimidin-2-yl)pyrrolidin-1-yl)piperidin-1-yl)picolinamide]	< 0.01	++ (++ indicates a value of 50 to less than 100)		0.01 to 0.1	< 0.01			
CNC(=O)c1ccc(N2CCC(N3CCC(c4cc5cccc(F)c5c(=O)[nH]4)C3)CC2)nn1 (single isomer, unassigned) [Compound 209a]	< 0.01	+++ (+++ indicate a value of at least 100)	< 0.01	0.1 to 1				
CNC(=O)c1ccc(N2CCC(N3CCC(c4cc5cccc(F)c5c(=O)[nH]4)C3)CC2)nn1 (single isomer, unassigned) [Compound 209b]	0.01 to 0.1	+++ (+++ indicate a value of at least 100)	0.01 to 0.1	1 to 10				
CCc1ccc(C2CCN(C3CCN(c4ccc(C(=O)NC)nn4)CC3)C2)[nH]c1=O (single isomer, unassigned) [Compound 210b]	< 0.01	+++ (+++ indicate a value of at least 100)	< 0.01	1 to 10				
CNC(=O)c1ccc(N2CCC(N3CCCC(c4ncc(CC(F)(F)F)c(=O)[nH]4)C3)CC2)cn1 (single isomer, unassigned) [Compound 212a]	0.1 to 1	+ (+ indicates a value of 10 to less than 50)	0.1 to 1	> 10				
CNC(=O)c1ccc(N2CCC(N3CCCC(c4ncc(CC(F)(F)F)c(=O)[nH]4)C3)CC2)cn1 (single isomer, unassigned) [Compound 212b]	> 10	− (− indicates a value of less than 10)	> 10	> 10				
CNC(=O)c1ccc(N2CCC(N3CCC(c4ccc(CC5CC5)c(=O)[nH]4)C3)CC2)cn1 (single isomer, unassigned) [Compound 213a]	0.01 to 0.1	+++ (+++ indicate a value of at least 100)	0.01 to 0.1	> 10				

Structure (SMILES)	IC50 [1, 4] [µM]	Selectivity ([2]; probe displacement HTRF)	Kd [2, 5] [µM]	Kd ([3]; PARP2 probe displacement HTRF) [µM]	Kd [2, 6] [µM]	IC50 [1, 7] [µM]	Kd [2, 8] [µM]	Kd ([3]; probe displacement HTRF) [µM]
CNC(=O)c1ccc(N2CCC(N3CCC(c4ccc(CC5CC5)c(=O)[nH]4)C3)CC2)cn1 (single isomer, unassigned) [Compound 213b]	< 0.01	+++ (+++ indicate a value of at least 100)	< 0.01	0.1 to 1				
CNC(=O)c1ccc(N2CCC(N3CCC(c4nc5c(c(=O)[nH]4)CCCN5)C3)CC2)cn1 (single isomer, unassigned) [Compound 214a]	0.01 to 0.1	++ (++ indicates a value of 50 to less than 100)	0.01 to 0.1	0.1 to 1				
CNC(=O)c1ccc(N2CCC(N3CCC(c4nc5c(c(=O)[nH]4)CCCN5)C3)CC2)cn1 (single isomer, unassigned) [Compound 214b]	< 0.01	+++ (+++ indicate a value of at least 100)	< 0.01	0.1 to 1				
CCc1ccc(C2CCN(C3CCN(c4cnc(C(=O)NC)cc4C)CC3)C2)[nH]c1=O (single isomer, unassigned) [Compound 217a]	0.1 to 1	− (− indicates a value of less than 10)	0.1 to 1	> 10				
CCc1ccc(C2CCN(C3CCN(c4cnc(C(=O)NC)cc4C)CC3)C2)[nH]c1=O (single isomer, unassigned) [Compound 217b]	< 0.01	++ (++ indicates a value of 50 to less than 100)	< 0.01	0.1 to 1				
CNC(=O)c1ccc(N2CCC(N3CCC(c4cc5ncccc5c(=O)[nH]4)C3)CC2)cn1 (single isomer, unassigned) [Compound 218a]	0.01 to 0.1	+++ (+++ indicate a value of at least 100)	0.01 to 0.1	> 10				
CNC(=O)c1ccc(N2CCC(N3CCC(c4cc5ncccc5c(=O)[nH]4)C3)CC2)cn1 (single isomer, unassigned) [Compound 218b]	< 0.01	+++ (+++ indicate a value of at least 100)	< 0.01	0.1 to 1				
CNC(=O)c1ccc(N2CCC(N3CCC(c4[nH]c(=O)c5ccccc5c4Cl)C3)CC2)cn1 (single isomer, unassigned) [Compound 219a]	< 0.01	++ (++ indicates a value of 50 to less than 100)	< 0.01	0.01 to 0.1				
CNC(=O)c1ccc(N2CCC(N3CCC(c4[nH]c(=O)c5ccccc5c4Cl)C3)CC2)cn1 (single isomer, unassigned) [Compound 219b]		+++ (+++ indicate a value of at least 100)				< 0.01	< 0.01	0.1 to 1
CC(=O)Nc1ccc(N2CCC(N3CCC(c4nc5ccccc5c(=O)[nH]4)C3)CC2)cn1 (single isomer, unassigned) [Compound 220a]		− (− indicates a value of less than 10)				0.1 to 1	0.1 to 1	1 to 10
CC(=O)Nc1ccc(N2CCC(N3CCC(c4nc5ccccc5c(=O)[nH]4)C3)CC2)cn1 (single isomer, unassigned) [Compound 220b]		+ (+ indicates a value of 10 to less than 50)				0.01 to 0.1	0.01 to 0.1	1 to 10
CNC(=O)c1ccc(N2CCC(N3CCC(c4nc5sc(C)c(C)c5c(=O)[nH]4)C3)CC2)cn1 (single isomer, unassigned) [Compound 221a]		+ (+ indicates a value of 10 to less than 50)				0.01 to 0.1	0.01 to 0.1	0.1 to 1
CNC(=O)c1ccc(N2CCC(N3CCC(c4nc5sc(C)c(C)c5c(=O)[nH]4)C3)CC2)cn1 (single isomer, unassigned) [Compound 221b]		++ (++ indicates a value of 50 to less than 100)				< 0.01	< 0.01	0.01 to 0.1
CNC(=O)c1ccc(N2CCC(N3CCC(c4nc5ccc(F)c(F)c5c(=O)[nH]4)C3)CC2)cn1 (single isomer, unassigned) [Compound 222a]		+ (+ indicates a value of 10 to less than 50)				< 0.01	< 0.01	0.1 to 1
CNC(=O)c1ccc(N2CCC(N3CCC(c4nc5ccc(F)c(F)c5c(=O)[nH]4)C3)CC2)cn1 (single isomer, unassigned) [Compound 222b]		+++ (+++ indicate a value of at least 100)				< 0.01	< 0.01	0.01 to 0.1
